In patent publication US6426229B1, “Chelating agent and detergent comprising the same” (Mitsubishi Rayon Co., Ltd., priority 1995, dated 2002):

Experiment: Storage of aqueous solution or slurry for 60 days: HPLC analysis of components and appearance
Type: physicochemical
Settings: keeping temperature 50° C.
Description: (§1) This aqueous solution was kept at 50° C. for 60 days, and, then, the components were analyzed by HPLC and, simultaneously, the appearance of the solution was observed.
as §1
This aqueous solution was kept at 50° C. for 60 days. Then, the components were analyzed by HPLC and, simultaneously, the appearance of the solution was observed.
In the case of `O=C([O-])C[C@@H](C(=O)[O-])N(CC(=O)[O-])CC(=O)[O-].[Na+].[Na+].[Na+].[Na+]` [Example 86, tetrasodium salt of (S)-aspartic acid-N,N-diacetic acid], the “Appearance after kept for 60 days” value is reported as “Light yellow transparent aqueous solution” and the “Content of the compound of the formula [I] in aqueous solution after kept for 60 days” value (“Content of the compound of the formula” below) is reported as 36.4 wt. %.
In the case of `O=C([O-])CCN[C@@H](CC(=O)[O-])C(=O)[O-].[Na+].[Na+].[Na+]` [compound 31, trisodium salt of (S)-aspartic acid-N-monopropionic acid], the “Appearance after kept for 60 days” value is reported as “Brown aqueous solution” and the “Content of the compound of the formula” value is reported as 33.2 wt. %.
With `O=C([O-])CC(NCCNC(CC(=O)[O-])C(=O)[O-])C(=O)[O-].[Na+].[Na+].[Na+].[Na+]` (centres unmarked) [compound 43, tetrasodium ethylenediamine-N,N′-disuccinate] the “Appearance after kept for 60 days” value was “Light yellow transparent aqueous solution” and the “Content of the compound of the formula” value was 35.7 wt. %.
With `O=C([O-])CN(CC(=O)[O-])c1ccccc1C(=O)[O-].[Na+].[Na+].[Na+]` [Example 102, trisodium salt of anthranilic acid-N,N-diacetic acid] the “Appearance after kept for 60 days” value was “Light yellow transparent aqueous solution” and the “Content of the compound of the formula” value was 37.8 wt. %.
For `O=C([O-])CC(NCCNC(CC(=O)[O-])C(=O)[O-])C(=O)[O-].[Na+].[Na+].[Na+].[Na+]` (centres unmarked) [Example 112, tetrasodium ethylenediamine-N,N′-disuccinate], the “Appearance after kept for 60 days” value was “Light yellow transparent aqueous solution” and the “Content of the compound of the formula” value was 36.4 wt. %.
For `O=C([O-])CC(NCCCNC(CC(=O)[O-])C(=O)[O-])C(=O)[O-].[Na+].[Na+].[Na+].[Na+]` (centres unmarked) [compound 45, tetrasodium 1,3-propanediamine-N,N′-disuccinate], the “Appearance after kept for 60 days” value was “Light yellow transparent aqueous solution” and the “Content of the compound of the formula” value was 33.3 wt. %.
In the case of `O=C([O-])CN(CCS(=O)(=O)[O-])CC(=O)[O-].[Na+].[Na+].[Na+]` [Example 100, trisodium salt of taurine-N,N-diacetic acid], the “Appearance after kept for 60 days” value is reported as “Light yellow transparent aqueous solution” and the “Content of the compound of the formula” value is reported as 34.7 wt. %.
With `O=C([O-])CN(CC(=O)[O-])c1ccccc1C(=O)[O-].[Na+].[Na+].[Na+]` [compound 39, trisodium salt of anthranilic acid-N,N-diacetic acid] the “Appearance after kept for 60 days” value was “Brown aqueous solution” and the “Content of the compound of the formula” value was 31.8 wt. %.
For `O=C([O-])C[C@H](NCCN[C@@H](CC(=O)[O-])C(=O)[O-])C(=O)[O-].[Na+].[Na+].[Na+].[Na+]` [compound 44, tetrasodium (S,S)-ethylenediamine-N,N′-disuccinate], the “Appearance after kept for 60 days” value was “Light yellow transparent aqueous solution” and the “Content of the compound of the formula” value was 34.4 wt. %.
In the case of `O=C([O-])CN[C@@H](CC(=O)[O-])C(=O)[O-].[Na+].[Na+].[Na+]` [compound 33, trisodium salt of (S)-aspartic acid-N-monoacetic acid], the “Appearance after kept for 60 days” value is reported as “Brown slurry” and the “Content of the compound of the formula” value is reported as 30.5 wt. %.
For `CN(CC(=O)[O-])CC(=O)[O-].[Na+].[Na+]` [compound 38, disodium N-methyliminodiacetate], the “Appearance after kept for 60 days” value was “Brown aqueous solution” and the “Content of the compound of the formula” value was 29.9 wt. %.
For `O=C([O-])CN(CCS(=O)(=O)[O-])CC(=O)[O-].[Na+].[Na+].[Na+]` [compound 40, trisodium salt of taurine-N,N-diacetic acid], the “Appearance after kept for 60 days” value was “Brown slurry” and the “Content of the compound of the formula” value was 29.5 wt. %.
With `O=C([O-])CN[C@@H](CC(=O)[O-])C(=O)[O-].[Na+].[Na+].[Na+]` [compound 29, trisodium salt of (S)-aspartic acid-N-monoacetic acid] the “Appearance after kept for 60 days” value was “Brown aqueous solution” and the “Content of the compound of the formula” value was 31.1 wt. %.
In the case of `O=C([O-])C[C@H](NCCN[C@@H](CC(=O)[O-])C(=O)[O-])C(=O)[O-].[Fe+3].[NH4+]` [Example 125, iron ammonium (S,S)-ethylenediamine-N,N′-disuccinate], the “Appearance after kept for 60 days” value is reported as “Reddish brown aqueous solution” and the “Content of the compound of the formula” value is reported as 36.5 wt. %.
For `O=C([O-])C[C@H](NCCN[C@@H](CC(=O)[O-])C(=O)[O-])C(=O)[O-].[Na+].[Na+].[Na+].[Na+]` [Example 113, tetrasodium (S,S)-ethylenediamine-N,N′-disuccinate], the “Appearance after kept for 60 days” value was “Light yellow transparent aqueous solution” and the “Content of the compound of the formula” value was 35.6 wt. %.
For `O=C([O-])C[C@H](NCCN[C@@H](CC(=O)[O-])C(=O)[O-])C(=O)[O-].[Fe+3].[NH4+]` [compound 49, iron ammonium (S,S)-ethylenediamine-N,N′-disuccinate], the “Appearance after kept for 60 days” value was “Blackish brown aqueous solution” and the “Content of the compound of the formula” value was 29.9 wt. %.
In the case of `O=C([O-])CC(NCCNC(CC(=O)[O-])C(=O)[O-])C(=O)[O-].[Cu+2].[Na+].[Na+]` (centres unmarked) [compound 48, copper disodium ethylenediamine-N,N′-disuccinate], the “Appearance after kept for 60 days” value is reported as “Dark blue transparent aqueous solution” and the “Content of the compound of the formula” value is reported as 31.4 wt. %.
In the case of `O=C([O-])CN[C@@H](CC(=O)[O-])C(=O)[O-].[Na+].[Na+].[Na+]` [Example 85, trisodium salt of (S)-aspartic acid-N-monoacetic acid], the “Appearance after kept for 60 days” value is reported as “Light yellow transparent aqueous solution” and the “Content of the compound of the formula” value is reported as 35.4 wt. %.
For `O=C([O-])CC(NCCNC(CC(=O)[O-])C(=O)[O-])C(=O)[O-].[Cu+2].[Na+].[Na+]` (centres unmarked) [Example 124, copper disodium ethylenediamine-N,N′-disuccinate], the “Appearance after kept for 60 days” value was “Dark blue transparent aqueous solution” and the “Content of the compound of the formula” value was 36.3 wt. %.
For `CN(CC(=O)[O-])CC(=O)[O-].[Na+].[Na+]` [Example 101, disodium N-methyliminodiacetate], the “Appearance after kept for 60 days” value was “Light yellow transparent aqueous solution” and the “Content of the compound of the formula” value was 36.6 wt. %.
In the case of `C[C@@H](C(=O)[O-])N(CC(=O)[O-])CC(=O)[O-].[Na+].[Na+].[Na+]` [Example 88, trisodium salt of (S)-α-alanine-N,N-diacetic acid], the “Appearance after kept for 60 days” value is reported as “Light yellow transparent aqueous solution” and the “Content of the compound of the formula” value is reported as 36.5 wt. %.
For `O=C([O-])CC(NCCCNC(CC(=O)[O-])C(=O)[O-])C(=O)[O-].[Na+].[Na+].[Na+].[Na+]` (centres unmarked) [Example 114, tetrasodium 1,3-propanediamine-N,N′-disuccinate], the “Appearance after kept for 60 days” value was “Light yellow transparent aqueous solution” and the “Content of the compound of the formula” value was 36.4 wt. %.

Experiment: as above
Type: physicochemical
Settings: keeping temperature 60° C.
For `O=C([O-])C[C@@H](C(=O)[O-])N(CC(=O)[O-])CC(=O)[O-].[Na+].[Na+].[Na+].[Na+]` [compound 36, tetrasodium salt of (S)-aspartic acid-N,N-diacetic acid, reference compound], the “Appearance after kept for 60 days” value was “Brown slurry” and the “Content of the compound of the formula” value was 48.3 wt. %.

Same assay, conditions: keeping temperature 65° C.
With `C[C@@H](C(=O)[O-])N(CC(=O)[O-])CC(=O)[O-].[Na+].[Na+].[Na+]` [Example 96, trisodium salt of (S)-α-alanine-N,N-diacetic acid] the “Appearance after kept for 60 days” value was “Light yellow slurry” and the “Content of the compound of the formula” value was 64.7 wt. %.
In the case of `CN(CC(=O)[O-])CC(=O)[O-].[Na+].[Na+]` [Example 107, disodium N-methyliminodiacetate], the “Appearance after kept for 60 days” value is reported as “Light yellow slurry” and the “Content of the compound of the formula” value is reported as 64.5 wt. %.

Same assay, conditions: keeping temperature 70° C.
In the case of `O=C([O-])C[C@H](NCC(O)CN[C@@H](CC(=O)[O-])C(=O)[O-])C(=O)[O-].[Na+].[Na+].[Na+].[Na+]` [Example 121, tetrasodium (S,S)-2-hydroxy-1,3-propanediamine-N,N′-disuccinate], the “Appearance after kept for 60 days” value is reported as “White slurry” and the “Content of the compound of the formula” value is reported as 78.7 wt. %.

Same assay, conditions: keeping temperature 75° C.
In the case of `O=C([O-])CCN[C@@H](CC(=O)[O-])C(=O)[O-].[Na+].[Na+].[Na+]` [Example 91, trisodium salt of (S)-aspartic acid-N-monopropionic acid], the “Appearance after kept for 60 days” value is reported as “Colorless transparent aqueous solution” and the “Content of the compound of the formula” value is reported as 49.8 wt. %.
In the case of `O=C([O-])CN[C@@H](CC(=O)[O-])C(=O)[O-].[Na+].[Na+].[Na+]` [Example 89, trisodium salt of (S)-aspartic acid-N-monoacetic acid], the “Appearance after kept for 60 days” value is reported as “Colorless transparent aqueous solution” and the “Content of the compound of the formula” value is reported as 49.4 wt. %.
